{
  "source": "paper PMC10539439",
  "about": "(Pharmacological Reports, 2023)",
  "origin": "cited, not measured here",
  "key": {"[1]": {"conditions": "5 mg/kg b.w., i.p.; cited from earlier work"}, "[2]": {"conditions": "5 mg/kg b.w., i.p.; cited from earlier work", "remark": "listed apart in the source"}},
  "data": [
    {"smiles": "N=C(N)N/N=C/c1c(Cl)cccc1Cl", "note": "[Guanabenz]", "values": [
      {"measurement": "Amount of calories consumed", "setting": "[1]", "result": "↓ [17]"},
      {"measurement": "Core temperature", "setting": "[2]", "result": "↓ [17]"}
    ]}
  ]
}
